Results taken from article PMC10693084, “Novel 8-Methoxycoumarin-3-Carboxamides with potent anticancer activity against liver cancer via targeting caspase-3/7 and β-tubulin polymerization” (BMC Chemistry, 2023).

Assays:
WI 38 normal cells = assay: MTT cytotoxicity assay against WI 38 normal cells; assay type: cell-based; settings: Homo sapiens, WI 38 normal lung cells, 24 h treatment
Procedure: Following the incubation period, the cells were subjected to various concentrations of the prepared molecules and subsequently incubated for a duration of 24 h. […] Subsequently, a volume of 100 μL of dimethyl sulfoxide (DMSO) was introduced into each well in order to facilitate the dissolution of the purple formazan that had been generated. The quantification of the color intensity of the formazan product, which serves as an indicator of the cellular growth condition, is performed by employing an ELISA plate reader set at a wavelength of 570 nm. The experimental conditions were implemented with a minimum of three replicates, and the experiments were conducted on at least three separate occasions.

HepG2 cells = assay: Cell cycle analysis by flow cytometry (PI); assay type: cell-based, human; settings: HepG2, 0.9 µM (IC50), 24 h
Procedure: Next, our investigations focused on evaluating the effects of compound 5 on the cell cycle of HepG2 cells utilizing flow cytometric analysis. The cells were treated with compound 5 at a concentration corresponding to the IC50 value and the cell cycle distribution was then analyzed, and the results were compared with untreated control cells. […] Conversely, there was a notable increase in the cellular population at the G2/M and pre-G1 phases. […] These findings indicate that compound 5 induces a notable arrest in cell growth during the […] phase. The flow cytometric analysis of HepG2 cells treated with compound 5 provided valuable insights into its effects on the cell cycle distribution. […] The G0/G1 phase is the resting phase, where cells prepare for DNA replication and cell division, while the S phase is where DNA replication occurs. […] This is a critical control point where the cell ensures that DNA replication is complete and free from errors before entering mitosis. […] The most remarkable finding was the dramatic rise in the pre-G1 population upon treatment with compound 5. The pre-G1 phase is associated with cells undergoing apoptosis, which is a programmed cell death process. […] This implies that the treatment with compound 5 leads to the activation of apoptotic pathways, causing the cells to undergo DNA fragmentation and degradation, ultimately leading to cell death. […] G2/M arrest prevents cells from progressing through the cell cycle, while apoptosis eliminates the damaged or aberrant cells. These combined effects may contribute to the compound's potent anti-cancer activity against HepG2 cells.
The quantification of DNA content in the cell cycle analysis was performed using a FACS Calibur flow cytometer at a wavelength of 488 nm, following the guidelines provided by the manufacturer. […] Following the completion of the treatment, the cells underwent two rounds of washing and were subsequently resuspended in phosphate-buffered saline (PBS). Following the washing step, a volume of 0.7 ml of absolute ethanol was subsequently introduced, and the mixture was incubated at a temperature of -20 °C for a duration of 20 min. Following the washing step, a volume of 500 μl of RNase was introduced, and subsequently, the mixture was incubated for a duration of 30 min. Next, the addition of PI was carried out, followed by a 30-min incubation period, during which exposure to light was carefully avoided.

β-tubulin = target: T1, β-tubulin (Homo sapiens, UniProt P07437); assay: β-tubulin polymerization activity (TUB β ELISA, 450 nm) in HepG2 cells; assay type: cell-based; settings: HepG2, 0.9 µM, 24 h
T1 construct: impact of compound 5 on β-tubulin polymerization activity in HepG2 cells; endogenous in cells; host or cells: HepG2
T1 sequence (P07437 whole entry): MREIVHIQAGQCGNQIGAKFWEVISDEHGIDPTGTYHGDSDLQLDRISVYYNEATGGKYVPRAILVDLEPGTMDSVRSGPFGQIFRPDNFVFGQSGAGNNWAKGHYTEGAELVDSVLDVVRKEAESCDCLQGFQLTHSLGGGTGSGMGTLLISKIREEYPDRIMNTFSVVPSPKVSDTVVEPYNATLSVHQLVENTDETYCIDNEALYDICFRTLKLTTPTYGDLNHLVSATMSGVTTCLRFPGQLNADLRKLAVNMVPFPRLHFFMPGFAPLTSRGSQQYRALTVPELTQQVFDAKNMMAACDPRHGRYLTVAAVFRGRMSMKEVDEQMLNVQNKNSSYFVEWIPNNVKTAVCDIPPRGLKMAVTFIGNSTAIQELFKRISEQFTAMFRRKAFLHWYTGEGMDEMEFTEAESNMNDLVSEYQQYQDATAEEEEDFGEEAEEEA
T1 sequence (P68363 whole entry partner): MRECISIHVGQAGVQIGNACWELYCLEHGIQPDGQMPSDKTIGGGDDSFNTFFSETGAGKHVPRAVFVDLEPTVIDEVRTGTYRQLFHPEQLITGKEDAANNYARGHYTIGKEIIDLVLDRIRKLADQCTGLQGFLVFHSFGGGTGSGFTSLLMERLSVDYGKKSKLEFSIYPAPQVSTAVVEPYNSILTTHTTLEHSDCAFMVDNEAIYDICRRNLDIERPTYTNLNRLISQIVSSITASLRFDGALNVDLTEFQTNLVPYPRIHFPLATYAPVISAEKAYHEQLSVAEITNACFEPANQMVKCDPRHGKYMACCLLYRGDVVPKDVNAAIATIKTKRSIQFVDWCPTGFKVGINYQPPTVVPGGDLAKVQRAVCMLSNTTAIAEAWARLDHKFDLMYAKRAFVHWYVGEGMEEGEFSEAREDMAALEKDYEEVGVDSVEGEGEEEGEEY
Excerpt: Microtubules are widely recognized as a significant target for anti-cancer therapy due to their pivotal involvement in cellular division and the preservation of cellular morphology. The impact of numerous anti-cancer agents is achieved through their ability to disrupt microtubule dynamics. This disruption ultimately results in the deregulation of mitotic spindles, leading to cell cycle arrest in cancer cells and subsequently inducing apoptosis. Toward this end, we further aimed to assess investigated the impact of compound 5 on β-tubulin polymerization activity in HepG2 cells. Thus, HepG2 cells were treated with compound 5 at (0.9 µM) for a duration of 24 h and the activity of β-tubulin polymerization was explored using spectrophotometry at 450 nm. […] These findings indicate that compound 5 interferes with the process of microtubule assembly, thereby disrupting the proper formation of mitotic spindles. […]
Dulbecco's Modified Eagle Medium (DMEM) (Invitrogen/Life Technologies) containing 10% fetal bovine serum (FBS) (Hyclone), 10 µg/mL of insulin (Sigma), and 1% penicillin–streptomycin was used for culturing the HepG2 cell line. […] This color change was then quantitatively measured using spectrophotometry at a specific wavelength of 450 nm ± 10 nm. […]

**Q.** For `COc1ccc(Br)c2cc(C(N)=O)c(=O)oc12` [Compound 5, 5-Bromo-8-methoxycoumarin-3-carboxamide], which IC50 (WI 38 normal cells) is on record?
**A.** 24.1 ± 1.46 µM

**Q.** What about the “percentage of cells in pre-G1 phase” value (HepG2 cells; untreated 2.08%) of the same compound?
**A.** 45.88%

**Q.** And the “percentage of cells in G2/M phase” value (HepG2 cells; untreated 15.38%)?
**A.** 31.51%

**Q.** What about the “percentage of cells in S phase” value (HepG2 cells; untreated 34.91%) of the same compound?
**A.** 27.4%

**Q.** What about the “percentage of cells in G0/G1 phase” value (HepG2 cells; untreated 49.71%) of the same compound?
**A.** 41.09%

**Q.** What about the “reduction in the concentration of β-tubulin polymerization vs untreated HepG2 cells” value (β-tubulin) of the same compound?
**A.** threefold
